For data set [1] the following is noted: cloud point; cited from earlier work.
Data set [2] has as its system Mycobacterium sp. NRRL B 3683. As to the kind of experiment: Screening of nonionic surfactant: biocompatibility or potential toxicity to the microorganism, by final ADD concentration in surfactant-amended transformation medium. In kind it is cell-based. To be noted: high concentration of surfactant (2.0 g/100 ml), 28° C., 7 days. How it is done:
Microbial strain, Mycobacterium sp. NRRL B 3683, is preserved in Shanghai Health Creation Center for Biopharmaceuticals R&D. It is able to remove the side chain of cholesterol, giving out ADD and 4-AD as final products, at a ratio of ca. 10:1.
Transformation medium (100 ml): (NH4)SO4 1.0 g, Na2HPO4 0.45 g, KH2PO4 0.34 g, MgSO4.7H2O 0.2 g, cholesterol 0.5 g, nonionic surfactant 2.0 g
The seed culture was grown aerobically at 28° C. at 220 r/min for 3 days with 20 ml of medium in a 250 ml Erlenmeyer flask. The seed culture was then transferred by 10% into 22 ml of transformation medium in a 250 ml Erlenmeyer flask, which was then shaken at 28° C. at 220 r/min for 7 days. A portion of the well-mixed transformation culture broth was withdrawn for analysis.
1 ml of sample was withdrawn from culture broth and extracted with 4 ml of methanol for 2 hrs, followed by centrifugation. 0.8 ml of supernatant was taken for HPLC analysis. Hypesil C18 column using methanol:water (4:1) as mobile phase, flow rate of 0.7 ml/min, and detection wavelength at 254 nm were applied.
For selecting appropriate medium of microbial transformation, biocompatibility or potential toxicity of surfactant to microorganism is critical.

Data set [3] can be described thus: TLC analysis of distribution of substrate and product in CPS. In kind it is physicochemical. To be noted: FIG. 4. How it is done:
TLC analysis was performed to determine the distribution of substrate and products in CPS, using Silica gel 60 F254 (Merck) high-performance thin layer chromatography plates which is developed in Chloroform:ether (1:3) followed by soaking in phosphornolybdic acid solution and drying by heat. Substrate and products were separated, with their Rf values of cholesterol, a-AD and ADD being 0.62, 0.47, and 0.42, respectively.
By TLC analysis, the partition of substrate and product in CPS is viewed in FIG. 4. […] Partition of cells between the two phases is determined with hemocytometry. Its partition coefficient between the coacervate phase and the dilute phase is roughly 10, indicating the surface of Mycobacterium sp. is rather hydrophobic. This is in compliance with the report that Mycobacterium is a hydrophobic microbe.

For data set [4] the following is noted: footnote a: mg/L; cited from earlier work.
The conditions of data set [5]: cited from earlier work.

With Triton X-100, the CP in data set [1] was 64 °C. The “biocompatibility with the microorganism” value in data set [2] is given as “incompatible with the microorganism”.

As to `C[C@]12C=CC(=O)C=C1CC[C@@H]1[C@@H]2CC[C@]2(C)C(=O)CC[C@@H]12` [ADD], the “partition in CPS (dilute phase vs coacervate phase)” value in data set [3] is “based in the coacervate phase”.

Take Tween 60: the CMC in data set [4] is on record as 27^a mg/L.

For the molecule `CC(C)CCC[C@@H](C)[C@H]1CC[C@H]2[C@@H]3CC=C4C[C@@H](O)CC[C@]4(C)[C@H]3CC[C@]12C` [cholesterol], the solubility in water entry in data set [5] is “below 1 μM”.

On to Tween 40, for which, in data set [4], the CMC is listed as 29^a mg/L.

These data come from patent US20070259428A1, “Use of Cloud Point System in Biotransformation” (Shanghai Health Creation Center for Biopharmaceutical R&D …, priority 2003, published 2007).
